Experimental data published in PubChem BioAssay (NCI).
“And” between values parts separate entries of the source, which are not always exact repeats. Identical values can stand only once.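 Assay format: 96-well plates, 48-hour exposure. Abbreviation: GI50, concentration required for 50% inhibition of growth. TGI denotes the concentration required for complete inhibition of growth.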

Assays:
Experiment in all cases: NCI anticancer screen, dose series, 48 h
DLD-1 colon = tested on: DLD-1 colon
DMS 114 small cell lung = tested on: DMS 114 small cell lung
HOP-18 NSCLC = tested on: HOP-18 NSCLC
KM20L2 colon = tested on: KM20L2 colon
M19-MEL melanoma = tested on: M19-MEL melanoma
SNB-78 CNS = tested on: SNB-78 CNS
XF 498 CNS = tested on: XF 498 CNS
RXF-631 renal = tested on: RXF-631 renal
SN12K1 renal = tested on: SN12K1 renal
MDA-N = tested on: MDA-N

SMILES | TGI (DLD-1 colon) | TGI (DMS 114 small cell lung) | TGI (HOP-18 NSCLC) | TGI (KM20L2 colon) | TGI (M19-MEL melanoma) | TGI (SNB-78 CNS) | TGI (XF 498 CNS) | TGI (RXF-631 renal) | TGI (MDA-N) | other results
Cc1ccc(/C=N/NS(=O)(=O)c2ccccc2)cc1C | > 100 µM | > 100 µM | > 100 µM | > 100 µM | > 100 µM | > 100 µM | > 100 µM |  |  | 
CC(C)CCCCCCCCCCCCC(=O)NCC(=O)NC1C(C)OC(Nc2ncnc3nc[nH]c23)C(O)C1O (stereo not given) | 0.105 µM | 0.263 µM and 0.0506 µM |  | 0.497 µM | 0.014 µM | 0.00718 µM and 0.00618 µM | 0.000925 µM | 0.000583 µM |  | GI50 (DMS 114 small cell lung): 0.00161 µM and 0.0148 µM; GI50 (KM20L2 colon): 5.75e-05 µM; GI50 (M19-MEL melanoma): 0.000861 µM; TGI (SN12K1 renal): 0.116 µM; GI50 (XF 498 CNS): 0.000129 µM
C=CCOc1ccc(N)c([N+](=O)[O-])c1 |  |  |  |  |  |  |  |  | > 100 µM | 
Cc1cc(=O)oc2cc3oc(N(C)c4ccccc4)nc(=O)c3cc12 |  |  |  |  |  |  |  |  | > 100 µM | 
CC[O-].CC[O-].O=C([CH-]C(=O)c1ccccc1)CCCCCCC(=O)[CH-]C(=O)c1ccccc1.[Ti+4] | > 100 µM |  | > 100 µM | > 100 µM | > 100 µM | > 100 µM | > 100 µM |  |  | GI50 (DLD-1 colon): > 100 µM; GI50 (HOP-18 NSCLC): > 100 µM; GI50 (KM20L2 colon): > 100 µM; GI50 (M19-MEL melanoma): > 100 µM; GI50 (SNB-78 CNS): > 100 µM; GI50 (XF 498 CNS): > 100 µM
O=[N+]([O-])c1cc(I)cc(/C=N/NS(=O)(=O)c2ccc(Cl)cc2)c1O | 59.4 µM |  | 45.5 µM | > 100 µM | 56.9 µM | 70.9 µM |  | 45.3 µM |  | 
COc1ccccc1NC(=O)CC(=O)n1nc(C)c(N=Nc2ccccc2Cl)c1C | > 100 µM | > 100 µM | > 100 µM | > 100 µM | > 100 µM | 57.1 µM | > 100 µM | > 31.6 µM | > 31.6 µM | 
CC(=O)NCc1c(C(N)=O)ncn1Cc1ccccc1 |  | > 100 µM | > 100 µM | > 100 µM | > 100 µM | > 100 µM | > 100 µM | > 100 µM |  | 
C1C[OH+]CCNCC[OH+]CC[OH+]CCN1.N.[Cl-].[Pt+4] | > 100 µM |  | > 100 µM | > 100 µM |  |  |  |  |  | GI50 (DLD-1 colon): 46.1 µM; GI50 (HOP-18 NSCLC): 37.5 µM; GI50 (KM20L2 colon): 22.8 µM
O=C1NC2(CCCC2)C2CCCCC12O (stereo not given) | > 100 µM | > 100 µM | > 100 µM |  | > 100 µM | > 100 µM | > 100 µM | > 100 µM |  | 
Cc1ccc2[nH]c(O)c(N=Nc3ccccc3[N+](=O)[O-])c2c1 |  |  |  |  |  |  |  |  | > 100 µM | 
CC(=O)OC1=C2CC[C@@H]3C(CC[C@@]4(C)C3CC[C@@H]4OC(C)=O)[C@@]2(C)CC(C#N)C1=O (stereo not given in full) | 69.8 µM | 37.1 µM |  | > 100 µM |  | 90.8 µM | 80.8 µM |  |  | 
COc1ccccc1NC(=O)C1=C(C)NC(C)=C(C(=O)Nc2ccccc2OC)C1c1ccccc1Cl | > 100 µM | > 100 µM | > 100 µM | > 100 µM | > 100 µM |  | > 100 µM | > 100 µM |  | 
COc1ccc(C[C@]23CCC(=O)N2CCc2cc(OC)c(O)cc23)cc1O |  | > 100 µM | > 100 µM | > 100 µM | > 100 µM | > 100 µM |  | > 100 µM |  | 
CN(/N=C/c1ccccc1O)c1ccc2ccccc2n1 |  |  |  |  |  |  |  |  | > 100 µM | 
OCCN(CCO)c1nc(N2CCCCC2)c2nc(N(CCO)CCO)nc(N3CCCCC3)c2n1 |  |  |  |  |  |  |  |  | > 100 µM | 
COc1ccc(-c2oc3c(OC)c(OC)c(OC)c(O)c3c(=O)c2OC)cc1O | > 100 µM | 0.0784 µM |  | 26.1 µM | 31.8 µM | > 100 µM | 0.68 µM | 35.8 µM |  | GI50 (DLD-1 colon): 0.0674 µM; GI50 (M19-MEL melanoma): < 0.01 µM; GI50 (SNB-78 CNS): < 0.01 µM
CCc1[nH]nc(C(N)=O)c1N=NN(C)C |  |  |  |  |  |  |  |  | > 100 µM | 
O=S1(=O)c2cc(S(=O)(=O)n3ccnc3)ccc2NC2=NCCCN21 | > 100 µM | 49.6 µM | > 100 µM | 41.7 µM | > 100 µM |  |  |  |  | 

SMILES | TGI (DLD-1 colon) | TGI (DMS 114 small cell lung) | TGI (HOP-18 NSCLC) | TGI (KM20L2 colon) | TGI (M19-MEL melanoma) | TGI (SNB-78 CNS) | TGI (XF 498 CNS) | TGI (RXF-631 renal) | TGI (MDA-N) | other results
CN(C)CCN(C)C(=O)c1cccc2cccc(C(=O)O)c12 | > 100 µM | > 100 µM | > 100 µM | > 100 µM | > 100 µM | > 100 µM | > 100 µM | > 100 µM |  | 
O=C(C=Nc1ccccc1S)c1ccco1 | 28.1 µM | 31 µM | 37.1 µM | 34.7 µM | 27 µM | 32.7 µM |  | 25.7 µM |  | GI50 (RXF-631 renal): 7.22 µM
COc1c(C)c(OC)c(C(=O)CC(C)C)c(OC)c1C |  |  |  |  |  |  |  |  | > 100 µM | 
COc1cc(/C=C2\NC(=O)C3Cc4c(OC)c(C)c(OC)c(OC)c4C2N3C)c(OC)c(C)c1OC (stereo not given) | > 100 µM | > 100 µM | > 100 µM | > 100 µM | > 100 µM | > 100 µM | > 100 µM | > 100 µM |  | 
CC(=O)[CH-]C(C)=O.CC(=O)[CH-]C(C)=O.[Cl-].[O]=[V] | > 100 µM | > 100 µM | > 100 µM |  |  |  | 66 µM |  |  | GI50 (DLD-1 colon): 34.6 µM; GI50 (DMS 114 small cell lung): 35.8 µM; GI50 (HOP-18 NSCLC): > 100 µM; GI50 (XF 498 CNS): 17.8 µM
O=S(=O)(O)n1ccnc1 (tested in a mixture with another compound) |  |  |  |  |  |  |  |  | > 100 µM | 
CC1OC(CC(=O)O)Cc2c1c(O)c1c(O)cc(-c3cc(=O)c4c(=O)c5c(c(=O)c=4c3=O)CC(CC(=O)O)OC5C)c(O)c1c2O (stereo not given) | 26.4 µM | 40 µM | 45.7 µM | > 68 µM | 49 µM | > 73 µM | 34.5 µM |  |  | GI50 (MDA-N): 29.1 µM
[Co].[O-]c1cccnc1C=Nc1ccccc1.[OH3+] | > 100 µM | > 100 µM |  | > 100 µM | > 100 µM | > 100 µM | > 100 µM |  |  | GI50 (DLD-1 colon): 90.7 µM; GI50 (DMS 114 small cell lung): > 100 µM; GI50 (KM20L2 colon): > 100 µM; GI50 (M19-MEL melanoma): > 100 µM; GI50 (SNB-78 CNS): > 100 µM; GI50 (XF 498 CNS): > 100 µM
CCOC(=O)c1c(-c2ccc(OC)c(O)c2)c(C#N)c(=S)n(C2OC(COC(C)=O)C(OC(C)=O)C(OC(C)=O)C2OC(C)=O)c1-c1ccccc1 (stereo not given) |  |  |  |  |  |  |  |  | 37.8 µM and > 100 µM | GI50 (MDA-N): 16.8 µM and > 100 µM
CCOC(=O)CNC(=O)OCc1ccccc1 | > 100 µM | > 100 µM |  |  | > 100 µM | > 100 µM | > 100 µM | > 100 µM |  | 
NNc1nc2ccccc2o1 |  |  |  |  |  |  |  |  | > 100 µM | 
FC(F)(F)c1nc(SCc2ccc(Cl)cc2)n[nH]1 |  |  |  |  |  |  |  |  | > 100 µM | 
O=C(O)CCSC(=O)Nc1cccc2ccccc12 | > 100 µM | > 100 µM | > 100 µM | > 100 µM | > 100 µM | > 100 µM | > 100 µM | > 100 µM |  | 
CN=C1CN=C(OP(=O)(N2CCOCC2)N2CCOCC2)c2cc(Cl)ccc2N1 | > 100 µM | > 100 µM | > 100 µM | > 100 µM | > 100 µM | > 100 µM | > 100 µM | > 100 µM |  | 
O=C(CC1(O)C(=O)Nc2ccccc21)c1ccc(Cl)cc1Cl (stereo not given) | > 100 µM | > 100 µM |  | > 100 µM | > 100 µM | > 100 µM | > 100 µM | > 100 µM |  | 
CO/C=C(\Br)c1ccc2c(c1)OCO2 |  | > 100 µM |  |  | > 100 µM | > 100 µM | > 100 µM | > 100 µM |  | 
C/C(=C\C(C[C@](C)(O)C(O)CCC#C[Si](C)(C)C)S(=O)(=O)c1ccccc1)CC/C=C/CO[Si](C)(C)C(C)(C)C (stereo not given in full) | 48.2 µM | 32.9 µM |  | 24 µM | 32.5 µM | 35.6 µM | 26.2 µM | 23.9 µM |  | 
CCC[CH2][Sn]1([CH2]CCC)[O]CC[S]1 | 1.73 µM | 1.26 µM | 1.89 µM | 2.75 µM | 2.75 µM | 2.26 µM | 1.02 µM | 1.34 µM |  | GI50 (DLD-1 colon): 0.47 µM; GI50 (DMS 114 small cell lung): 0.272 µM; GI50 (HOP-18 NSCLC): 0.717 µM; GI50 (KM20L2 colon): 1.41 µM; GI50 (M19-MEL melanoma): 0.475 µM; GI50 (RXF-631 renal): 0.285 µM; GI50 (SNB-78 CNS): 0.494 µM; GI50 (XF 498 CNS): 0.476 µM
